Test results reported in patent US20230021483A1, “[…] […] METHOD AND CLASSIFICATION OF PHARMACEUTICAL COMPONENTS BY USING TRANSCRIPTOMES” (National Institutes of Biomedical Innovation, Health and …, priority 2016, published 2023).

Test system: adjuvant-associated biological themes in LV, SP, LN
Conditions: LV, ID
Source text: A defined sets of genes were selected according to specified criteria (e.g., FC, PA-call, threshold values). Their functional enrichment values were then obtained from TargetMine (Chen, Y. A., Tripathi, L. P. & Mizuguchi, K. PloS one 6, e17844 (2011)) (http://targetmine.mizuguchilab.org/) using the API interface. The following resources were used throughout the analysis via TargetMine Interface (GO, GOSlim, Integrated Pathway, KEGG, Reactome, and the NCI pathway). The Holm-Bonferroni method was used for multiple testing corrections.
Whole organ transcriptome data for each organ from each mouse were analyzed as follows to obtain biological themes for individual samples from each adjuvant-administered group of three mice. […] A set of Pj genes was first defined, where eij/ei(c)>2.0. Biological themes enriched within Pj were then identified using TargetMine (Chen, Y. A. et al., PloS one 6, e17844 (2011)) (http://targetmine.mizuguchilab.org/). Tj denote the resulting list of biological themes, with associated p-values from Fischer's exact test.
Next, the biological themes called by all the individual samples in the group were scored as follows. Having obtained three lists (T1, T2 and T3) for a given experimental condition, a consensus list T of themes was created as T={(t1, p1), (t2, p2), . . . }, where ti is a biological theme that appears in all of T1, T2 and T3, and pi is the smallest of the associated p-values. Only the themes with the p-value of <0.05 were included in T.
To summarize the biological themes in T further, a list of terms considered to be associated with adjuvant activity in general was separately prepared. AT={at1, at2, . . . }, where ati is a pre-selected adjuvant-associated term (e.g., “stress” or “cytokine”). Finally, an enrichment score S for an adjuvant-associated term ati was defined as: S(ati)=Σ−log(pj), where the name of tj in T includes a term ati as a substring and pj is the associated p-value.
This scoring scheme summarizes the relative enrichment of pre-selected adjuvant-associated terms in genes responding to each adjuvant in each organ.

## CCOCc1nc2c(N)nc3ccccc3c2n1CC(C)(C)O [R848, 4-amino-2-(ethoxymethyl)-a,a-dimethyl-1H-imidazo[4,5-c]quinoline-1-ethanol]
  IFN alpha, GO annotation line 1 of 5: 10.2
  IFN alpha, GO annotation line 2 of 5: 3.15
  IFN alpha: cellular response to interferon-alpha: 0
  IFN alpha: positive regulation of interferon-alpha production: 0
  IFN alpha: regulation of interferon-alpha production: 0
  IFN beta: cellular response to interferon-beta: 17.9
  IFN beta: interferon-beta production: 7.51
  IFN beta: positive regulation of interferon-beta production: 6.66
  IFN beta: regulation of interferon-beta production: 5.68
  IFN beta: response to interferon-beta: 23.9
  IFN gamma: cellular response to interferon-gamma: 11.2
  IFN gamma: interferon-gamma production: 0
  IFN gamma: regulation of interferon-gamma production: 0
  IFN gamma: response to interferon-gamma: 15.7
  NF-kappa B signaling pathway, GO annotation line 1 of 4: 8.86
  NF-kappa B signaling pathway, GO annotation line 2 of 4: 7.93
  NF-kappa B signaling pathway, GO annotation line 3 of 4: 5.3
  NF-kappa B signaling pathway, GO annotation line 4 of 4: 5.28
  TNF signaling pathway: 16.1
  adaptive immune response, GO annotation line 1 of 5: 4.42
  adaptive immune response, GO annotation line 2 of 5: 6.23
  adaptive immune response, GO annotation line 3 of 5: 4.06
  adaptive immune response, GO annotation line 4 of 5: 0
  adaptive immune response, GO annotation line 5 of 5: 0
  apoptosis, GO annotation line 1 of 8: 18.6
  apoptosis, GO annotation line 2 of 8: 15.5
  apoptosis, GO annotation line 3 of 8: 10.6
  apoptosis, GO annotation line 4 of 8: 5.18
  apoptosis, GO annotation line 5 of 8: 4.1
  apoptosis, GO annotation line 6 of 8: 5.48
  apoptosis, GO annotation line 7 of 8: 0
  apoptosis, GO annotation line 8 of 8: 0
  cell death, GO annotation line 1 of 9: 23.1
  cell death, GO annotation line 2 of 9: 18.3
  cell death, GO annotation line 3 of 9: 19.4
  cell death, GO annotation line 4 of 9: 15.5
  cell death, GO annotation line 5 of 9: 15.5
  cell death, GO annotation line 6 of 9: 4.66
  cell death, GO annotation line 7 of 9: 4.64
  cell death, GO annotation line 8 of 9: 0
  cell death, GO annotation line 9 of 9: 0
  chemokine, GO annotation line 1 of 4: 3.95
  chemokine, GO annotation line 2 of 4: 0
  chemokine, GO annotation line 3 of 4: 0
  chemokine, GO annotation line 4 of 4: 0
  chemotaxis, GO annotation line 1 of 11: 11
  chemotaxis, GO annotation line 2 of 11: 0
  chemotaxis, GO annotation line 3 of 11: 8.03
  chemotaxis, GO annotation line 4 of 11: 3.91
  chemotaxis, GO annotation line 5 of 11: 0
  chemotaxis, GO annotation line 6 of 11: 4.44
  chemotaxis, GO annotation line 7 of 11: 3.7
  chemotaxis, GO annotation line 8 of 11: 3.31
  chemotaxis, GO annotation line 9 of 11: 0
  chemotaxis, GO annotation line 10 of 11: 3.62
  chemotaxis, GO annotation line 11 of 11: 0
  cytokine, GO annotation line 1 of 17: 44.8
  cytokine, GO annotation line 2 of 17: 30.5
  cytokine, GO annotation line 3 of 17: 30.4
  cytokine, GO annotation line 4 of 17: 11.1
  cytokine, GO annotation line 5 of 17: 30.4
  cytokine, GO annotation line 6 of 17: 26.5
  cytokine, GO annotation line 7 of 17: 16.5
  cytokine, GO annotation line 8 of 17: 5.44
  cytokine, GO annotation line 9 of 17: 4.8
  cytokine, GO annotation line 10 of 17: 20.3
  cytokine, GO annotation line 11 of 17: 5.01
  cytokine, GO annotation line 12 of 17: 0
  cytokine, GO annotation line 13 of 17: 5.55
  cytokine, GO annotation line 14 of 17: 6.84
  cytokine, GO annotation line 15 of 17: 0
  cytokine, GO annotation line 16 of 17: 0
  cytokine, GO annotation line 17 of 17: 0
  defense response, GO annotation line 1 of 11: 71.2
  defense response, GO annotation line 2 of 11: 50.3
  defense response, GO annotation line 3 of 11: 33.9
  defense response, GO annotation line 4 of 11: 46.5
  defense response, GO annotation line 5 of 11: 18.6
  defense response, GO annotation line 6 of 11: 8.29
  defense response, GO annotation line 7 of 11: 5.54
  defense response, GO annotation line 8 of 11: 20
  defense response, GO annotation line 9 of 11: 6.02
  defense response, GO annotation line 10 of 11: 4.72
  defense response, GO annotation line 11 of 11: 0
  immune response, GO annotation line 1 of 8: 54.5
  immune response, GO annotation line 2 of 8: 27.8
  immune response, GO annotation line 3 of 8: 34.2
  immune response, GO annotation line 4 of 8: 14.6
  immune response, GO annotation line 5 of 8: 12.6
  immune response, GO annotation line 6 of 8: 15.1
  immune response, GO annotation line 7 of 8: 0
  immune response, GO annotation line 8 of 8: 0
  inflammatory response, GO annotation line 1 of 5: 22.2
  inflammatory response, GO annotation line 2 of 5: 6.29
  inflammatory response, GO annotation line 3 of 5: 0
  inflammatory response, GO annotation line 4 of 5: 0
  inflammatory response, GO annotation line 5 of 5: 0
  innate immune response, GO annotation line 1 of 6: 49.6
  innate immune response, GO annotation line 2 of 6: 37.9
  innate immune response, GO annotation line 3 of 6: 22.9
  innate immune response, GO annotation line 4 of 6: 17.9
  innate immune response, GO annotation line 5 of 6: 13.8
  innate immune response, GO annotation line 6 of 6: 8.91
  interleukin-6: interleukin-6 production: 7.8
  interleukin-6: positive regulation of interleukin-6 production: 4.53
  interleukin-6: regulation of interleukin-6 production: 6.67
  interleukin-12: interleukin-12 production: 0
  interleukin-12: positive regulation of interleukin-12 production: 0
  interleukin-12: regulation of interleukin-12 production: 0
  migration, GO annotation line 1 of 10: 8.03
  migration, GO annotation line 2 of 10: 0
  migration, GO annotation line 3 of 10: 7.89
  migration, GO annotation line 4 of 10: 5.8
  migration, GO annotation line 5 of 10: 3.14
  migration, GO annotation line 6 of 10: 3.96
  migration, GO annotation line 7 of 10: 3.31
  migration, GO annotation line 8 of 10: 0
  migration, GO annotation line 9 of 10: 0
  migration, GO annotation line 10 of 10: 0
  stress, GO annotation line 1 of 3: 63.8
  stress, GO annotation line 2 of 3: 45.6
  stress, GO annotation line 3 of 3: 0
  wounding, GO annotation line 1 of 3: 11.1
  wounding, GO annotation line 2 of 3: 9.74
  wounding, GO annotation line 3 of 3: 4.53
